# Earlier results, collected in patent publication US12605385B2, “Methotrexate formulation” (Therakind Ltd., priority 2014, dated 2026).
# Where two headings read alike, the source gives them in different places.
# Experiments:
# [1] = 50% v/v propylene glycol: water formulation
compound,measurement,setting,value
"CN(Cc1cnc2nc(N)nc(N)c2n1)c1ccc(C(=O)N[C@@H](CCC(=O)O)C(=O)O)cc1 [Methotrexate, 4-amino-N^10-methylpteroylglutamic acid]",solubility,in alkaline solution,freely soluble
same,solubility,in hydrochloric acid,slightly soluble
same,solubility,"in water, alcohol, chloroform and ether",almost insoluble
same,drug solubility on increasing the vehicle pH to 6.34,[1],further increased
same,solubility at pH 5.29 compared with pH 4,[1],significantly higher
